Measurements as given in a melting point compilation (Tetko et al.; mined from patent text by program, amines drawn as free bases though some values may be those of a salt).

melting point [°C]	Structure (SMILES)
189 to 192	CNC(=S)NS(=O)(=O)c1cc(CCNC(=O)c2cc(Cl)ccc2OC)ccc1-c1ccc(Cl)cc1
105 to 107	CCOc1cc([C@@H](CC(=O)N(C)C)N2Cc3cccc(NC(=O)N(C)C)c3C2=O)ccc1OC
174 to 177	CC(=O)OC1CSC(Oc2ccc(-c3sc(C)nc3C)nc2)C(OC(C)=O)C1OC(C)=O (centres undefined)
139 to 140	COC(=O)C1Cc2c(n(C)c3ccccc23)CN1C(=S)SCc1cccs1 (centres undefined)
130 to 131	O=CCCCCC(=O)Nc1ccc(C(F)(F)F)cc1
112 to 113	CNC(=O)OCc1nc(C(C)C)c(Sc2cc(Cl)cc(Cl)c2)n1C
228 to 229	COc1cc(Nc2c(C#N)cnc3cc(Br)sc23)c(Cl)cc1Cl
72 to 73	CC(C)n1nc(Br)c([N+](=O)[O-])c1Br
192 to 193	O=c1cc(NCc2ccccc2)c(-c2nc[nH]n2)nn1-c1ccccc1
204	CNc1c(OC)cc(Cc2cnc(N)nc2N)cc1OC
230 to 232	COc1cccc2c(=O)n3ccsc3nc12
146	O=C(O)CCSC(=S)Nc1ccc(Oc2ccc([N+](=O)[O-])cc2)cc1
173 to 175	CNC(=S)n1nc(Cc2ccccc2)nc1N
234 to 235	CC(C)(C)c1ccc(C(=O)Nc2cn3cc(C(F)(F)F)ccc3n2)cc1
120	CC(=O)C(C(=O)Cc1ccccc1)C(=O)NS(=O)(=O)c1ccc(C)cc1 (centres undefined)
109 to 110	Cc1ccc(C(=O)NCCNC(=O)OC(C)(C)C)s1
84.5 to 86.5	CCCC[C@H](F)C(=O)N[C@@H](C)c1ccc([N+](=O)[O-])cc1
> 300	O=c1[nH]c2ncc(-c3ccc(-c4nc5ccccc5[nH]4)cc3)nc2n1CC1CCOCC1
144	CCCN(C)S(=O)(=O)c1cccc(-c2cc(-c3nc(-c4ccc(C(F)(F)F)cc4)cc(C(F)(F)F)n3)ccn2)c1
208 to 209	C#CCN(Cc1ccc2nc(C)[nH]c(=O)c2c1)c1ccc(C(=O)NC(C)(C#N)Cc2ccccc2)cc1 (centres undefined)
53 to 54	CON=C(C#N)c1ccccc1COc1ccccc1C
114 to 115	CCOC(=O)c1cccc(-c2nc(-c3ccc(C)c(C)c3)cs2)c1
76 to 78	CC(=O)Oc1ccc(NC(=O)OC(C)(C)C)cc1C(=O)O
189 to 190	COc1ccc(S(=O)(=O)Nc2cc(Cl)cc(Cl)c2OC)cc1N1CCNCC1

melting point [°C]	Structure (SMILES)
114 to 115	CCOC(Nc1ccccc1)(OCC)c1ccnc(C(=O)c2ccccc2)c1
170 to 171	CCCn1c(CCOC)nc2c(N)nc3cc(OCCCS(C)(=O)=O)ccc3c21
182 to 183	CCOCn1c(N(C(C)=O)c2cc(C)cc(C)c2)c(CC)c(=O)[nH]c1=O
192 to 194	Cc1ccc(C(=O)O)cc1NC(=O)C(CS)Cc1ccccc1 (centres undefined)
277 to 279	COc1cc(-c2ccc(O)c(C3(C)CCCCC3)c2)cc(C=C2SC(N(C)C)=NC2=O)c1O
68 to 69	Cc1c(C)c2c(c(C)c1N)CC(C)(Cc1ccccc1)O2 (centres undefined)
86 to 87	O=[N+]([O-])c1cc(F)ccc1NC1CCN(Cc2ccccc2)CC1
123 to 124	N#CCOc1nsc2ccc([N+](=O)[O-])cc12
173 to 174	Cc1nc(C)c(-c2ccnc(Nc3ccc(N4CCSCC4)cc3)n2)s1
42 to 43	CCCCOC1C=CC(=O)N1S(=O)(=O)c1cccc(C(F)(F)F)c1 (centres undefined)
187 to 189	Cc1ccc(S(=O)(=O)Nc2ccc(-c3ccccc3)cn2)cc1
86 to 88	CCON1C(C)(C)CC(O)CC1(C)C
220	CCOc1cc(-c2cc(C(F)(F)F)n3ncc(C(=O)Nc4nc(C)c(S(=O)(=O)NC(C)(CO)CO)s4)c3n2)ccc1C(F)(F)F
130 to 131	CNNC(=O)c1ccc(Cl)cc1
280 to 284	O=P(Cc1ccc2ccccc2c1-c1c(CP(=O)(c2cccc(F)c2)c2cccc(F)c2)ccc2ccccc12)(c1cccc(F)c1)c1cccc(F)c1
252 to 257	COCc1ccc(-c2cn(-c3cc(C(=O)OC)c(NO)cc3C(F)(F)F)cn2)cc1
156 to 158	CC(=O)N1CCOc2ccc(C3=NNC(=O)CC3)cc21
126 to 128	CCN(CC)CCn1nnnc1-c1ccc2oc3ncccc3c(=O)c2c1
202 to 203	N#Cc1ccc(N(Cc2ccc(OS(N)(=O)=O)cc2)n2cnnc2)cc1-c1cc2ccccc2o1
115 to 116	COC(=O)CCC(=O)c1ccc(-c2ccc(Br)cc2)cc1
140 to 150	CC(C)CC(CS)C(=O)N[C@@H](C)C(=O)N[C@@H](CCCNC(=N)N)C(=O)O (some centres undefined)
170 to 190	COCCNCc1ccc(-c2cc3ncnc(Nc4ccc5[nH]ccc5c4)c3s2)cc1
45.6 to 46.8	Cc1ccc(CCC(=O)CC(=O)CCc2ccc(C)cc2)cc1
190 to 192	Cc1ccc(-n2ncc(-c3ccc(S(C)(=O)=O)cc3)c(-c3ccc(F)cc3)c2=O)cc1

melting point [°C]	Structure (SMILES)
144 to 145	Cn1c(CCCCN2CCN(c3cc(C(C)(C)C)nc(C(C)(C)C)n3)CC2)nnc1-c1ccccc1
165 to 167	CCCS(=O)(=O)Nc1nc(CN2CCN(C(c3ccccc3)c3ccccc3)CC2)cs1
159 to 162	Cn1c(-c2ccccc2)c(C(=O)CCn2ccnc2)c2ccccc21
88.2 to 89.5	CC1=C(C(O)c2ccc3c(c2)CN(C(N)=O)CC3)C(C)(C)CCC1 (centres undefined)
137 to 138	O=[N+]([O-])c1ccc2c(c1)COC(c1ccccc1F)O2 (centres undefined)
50 to 51	Cc1ccc(C2=NC(C)(C)[C@@H](c3ccncc3)C2)c(C)c1
82 to 84	CC(O)(CCO)c1ccc(-c2ccc(F)cc2F)cc1 (centres undefined)
118 to 119	CC(C)Cc1ccc(C(=O)O)c(=O)n1C
182 to 184	O=C(O)C(=O)CC(=O)c1cccn1Cc1ccc(Cl)cc1
137 to 138	CCN1C(=O)C(C(=O)Nc2ccccc2S(C)=O)c2cc3c(cc21)CCO3 (centres undefined)
295	CN(C)c1ncc(-c2cccnc2)cn1
78 to 80	C[C@@H](NC(=O)OC(C)(C)C)C(=O)NCCCN1CCN(CCCNc2cccc3c2C(=O)c2ccccc2C3=O)CC1
68 to 69	COC(=O)CC(NC(=O)C(C)(C)C)C(C)=O (centres undefined)
103 to 106	CC(C)N(CCN1C(=O)C(=O)c2ccccc21)C1CCCCC1
78 to 79	CC(C)COC(=O)Sc1ccc(-c2ccccc2)cc1
173	COC(=O)[C@@H](N)Cc1cc(I)c(Oc2ccc(O)cc2)c(I)c1
170 to 171	O=C(O)C1CCc2ccc(O)cc2C1 (centres undefined)
209 to 210	Cc1c(C#N)ccc(N)c1C#N
148 to 150	O=c1[nH]c2c(c(=O)n1CCCN1CCN(c3ccccc3OCC(F)(F)F)CC1)CCCC2
153 to 155	Cc1ccc(COc2cccc(C(=O)Nc3ccc(CN4CCCCC4)cc3)c2)cc1
67 to 70	Cn1nc(C(F)(F)F)c(CS(=O)(=O)C2=NOC(C)(C)C2)c1Oc1ccccc1Cl
164 to 166	O=C1C(=CNCCO)Cc2cc(Cl)ccc21
121	C[C@H](N=Cc1ccc(OCc2ccccc2F)cc1)C(N)=O
168 to 169	CCCS(=O)(=O)c1cc([C@H]2CC[C@H](c3cc(OC)c(OC)c(OC)c3)O2)cc(OC)c1O (relative stereo)

melting point [°C]	Structure (SMILES)
92 to 95	CCOC(=O)c1cccc(CCC(CO)n2cnc(C(N)=O)c2)c1 (centres undefined)
210	Cn1c(C(=O)O)c(Br)c2cc(OCc3ccccc3)ccc21
120 to 123	COc1cc(NC(SC)=C(C#N)S(=O)(=O)c2ccc(Cl)cc2)cc(OC)c1
171 to 172	COc1cc2c(cc1OC)C(=O)C(C)C(C)O2 (centres undefined)
78.2 to 78.4	COc1ccc(-c2cccc(Cl)c2)cc1Cn1cncn1
154 to 155	O=C1[C@H]2CCC[C@H]2Nc2ccccc2N1Cc1ccc([N+](=O)[O-])cc1 (relative stereo)
150 to 152	O=C(O)Cc1ccc(Oc2ccccc2CC(=O)O)cc1
123 to 124	CCOC(=O)Cn1c(-c2ccc(Cl)cc2)nc2cccnc21
214 to 216	CC(C)NC(=O)N1CCc2cc(S(=O)(=O)n3cc(-c4ccccc4)[nH]c3=O)ccc21
31 to 33	COC(=O)C(F)[C@@H]1[C@H]2O[C@H]2C[C@H]1O (some centres undefined)
72 to 76	CCCCCCCCCCCCCCCCOc1ccc(C(C)=O)o1
48	CCCCCCCCCCNC(=O)CCCOCCO
290 to 292	Cc1ccc2c(c1)C=Cc1cc(C)ccc1C2c1cn(Cc2ccc(C(=O)O)o2)c(=O)[nH]c1=S
154	Nc1ncc2c(n1)N(c1cccc(CCO)c1)C(=O)N(c1ccccc1Br)C2
71 to 72	CCOC(=O)c1cc2cccnc2n1Cc1ccccc1
157 to 160	N=C(N)Nc1ccc(CCCC(=O)NC(COCc2ccccc2)C(=O)NCCCC(CCCNC(=O)OCc2ccccc2)NC(=O)OCc2ccccc2)cc1 (centres undefined)
161	CSc1nn(C(=O)Oc2ccccc2)c(=O)n1N
219 to 221	CCCc1nc(Nc2ccc3cn[nH]c3c2)nc(NC2CCN(S(C)(=O)=O)CC2)n1
68 to 69	CCOC(=O)c1snc(C(=O)OC(C)(C)C)c1N
> 290	O=C1c2ccccc2-c2c1c(=O)[nH]c1ccccc21
135	CCOc1nc(-c2cccc(Cl)c2)c2cc(C(O)(c3ccc(I)cc3)c3cncn3C)ccc2n1 (centres undefined)
97 to 98	COC(=O)c1cccc(OCc2nc(-c3ccccc3)oc2C)n1

Structure (SMILES)	melting point [°C]
CC(=O)NC(NC(=O)Nc1ccccc1)C(=O)NCc1ccccc1 (centres undefined)	242
COCN1C(=O)CN2CCOC2(c2ccccc2Cl)c2cc(Cl)ccc21 (centres undefined)	144 to 147
Cc1cccc2c(Nc3ccc(OCCN(CCCl)CCCl)cc3)c3cccc(C(=O)NCCN(C)C)c3nc12	185 to 186
CC(=O)C1=CC=C(C(C)(C)OO)C1	82 to 84
CCCN(CCC)Cc1coc(-c2ncn3c2CN(C)C(=O)c2c(Cl)cccc2-3)n1	105 to 107
